In ChEMBL document CHEMBL1201862, “PubChem BioAssay data set” (2004):
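Values below derive from 48-hour exposures of cells grown in 96-well plates, with endpoints linearly interpolated between the two concentrations bracketing the appropriate inhibition level. At the GI50, growth is halved.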 Activity calls are given as the source filed them. Rule as the data show it: active = GI50 up to about 1.1 µM and inactive = higher.

How the values were obtained:
Assay in all cases: NCI anticancer screen, dose series, 48 h
EKVX = tested on: EKVX
RXF 393 = tested on: RXF 393
SF-295 = tested on: SF-295
OVCAR-4 = tested on: OVCAR-4
RPMI-8226 = tested on: RPMI-8226
HOP-92 = tested on: HOP-92
SK-MEL-2 = tested on: SK-MEL-2
SW-620 = tested on: SW-620
SK-OV-3 = tested on: SK-OV-3
NCI-H23 = tested on: NCI-H23
TK-10 = tested on: TK-10
HCT-116 = tested on: HCT-116
HL-60 = tested on: HL-60
786-0 = tested on: 786-0
CAKI-1 = tested on: CAKI-1
COLO 205 = tested on: COLO 205
MDA-MB-231 = tested on: MDA-MB-231
MCF7 = tested on: MCF7
MDA-N = tested on: MDA-N

Structure (SMILES)	GI50 (EKVX)	GI50 (RXF 393)	GI50 (SF-295)	GI50 (OVCAR-4)	GI50 (RPMI-8226)	GI50 (HOP-92)	GI50 (SK-MEL-2)	GI50 (SW-620)	GI50 (SK-OV-3)	GI50 (NCI-H23)	GI50 (TK-10)	GI50 (HCT-116)	GI50 (HL-60)	GI50 (786-0)	GI50 (CAKI-1)	GI50 (COLO 205)	GI50 (MDA-MB-231)	GI50 (MCF7)	GI50 (MDA-N)
CCOC(=O)C(=O)Nc1c(F)cc(F)cc1Br	> 100 µM (inactive)	> 100 µM (inactive)	> 100 µM (inactive)	> 100 µM (inactive)	> 100 µM (inactive)	> 100 µM (inactive)	> 100 µM (inactive)	> 100 µM (inactive)	> 100 µM (inactive)	> 100 µM (inactive)	> 100 µM (inactive)	> 100 µM (inactive)	> 100 µM (inactive)	> 100 µM (inactive)	> 100 µM (inactive)	> 100 µM (inactive)			
COC(OC)[C@@H](C)[C@H](O)[C@](C)(O)C1OC(C)(C)OC(C(C)C=C(C)C)C1C (some centres not stated)	> 100 µM (inactive)	66.4 µM (inactive)	> 100 µM (inactive)	> 100 µM (inactive)	48.6 µM (inactive)	> 100 µM (inactive)	> 100 µM (inactive)	> 100 µM (inactive)	> 100 µM (inactive)	> 100 µM (inactive)	> 100 µM (inactive)	> 100 µM (inactive)	29.9 µM (inactive)	> 100 µM (inactive)	> 100 µM (inactive)	> 100 µM (inactive)			
CCc1cccc(C(C)CC)c1NC(=O)C(=O)C(CC(=O)Nc1ccc(Cl)c(Cl)c1)C(=O)OC (configuration not stated)	> 100 µM (inactive)	> 100 µM (inactive)	30.4 µM (inactive)	> 100 µM (inactive)	43.4 µM (inactive)	16.7 µM (inactive)	> 100 µM (inactive)	46.7 µM (inactive)	> 100 µM (inactive)	> 100 µM (inactive)	> 100 µM (inactive)	> 100 µM (inactive)	> 100 µM (inactive)	80.9 µM (inactive)	19.5 µM (inactive)	> 100 µM (inactive)			
CC(=O)OCC1OC(OC2CC3C(C)(C)C(OC(C)=O)CC[C@]3(C)C3CCC45CC4(CC[C@H]5C(C)CC(O)C4OC4(C)C)[C@]23C)C(O)C(O)C1O (some centres not stated)	3.11 µM (inactive)	1.55 µM (inactive)	1.69 µM (inactive)	1.48 µM (inactive)	1.95 µM (inactive)	2.25 µM (inactive)	1.84 µM (inactive)	2.43 µM (inactive)	2.3 µM (inactive)	2.86 µM (inactive)	3.35 µM (inactive)	1.34 µM (inactive)	1.18 µM (inactive)	2.7 µM (inactive)	4.32 µM (inactive)	1.01 µM (active)			
O=C(O)C#CCO	> 100 µM (inactive)	> 100 µM (inactive)	> 100 µM (inactive)	> 100 µM (inactive)	> 100 µM (inactive)	> 100 µM (inactive)	> 100 µM (inactive)	> 100 µM (inactive)	> 100 µM (inactive)	> 100 µM (inactive)	> 100 µM (inactive)	> 100 µM (inactive)	> 100 µM (inactive)	> 100 µM (inactive)	> 100 µM (inactive)	> 100 µM (inactive)			
COc1ccccc1NC(=O)C(CC(C(=O)Nc1ccccc1OC)/C(C)=N/NC(=O)c1ccccc1O)/C(C)=N/NC(=O)c1ccccc1O (configuration not stated)	72.9 µM (inactive)	38.8 µM (inactive)	59.7 µM (inactive)	51.8 µM (inactive)	59.8 µM (inactive)	26 µM (inactive)	> 100 µM (inactive)	88.5 µM (inactive)	> 100 µM (inactive)	> 100 µM (inactive)	> 100 µM (inactive)		47.5 µM (inactive)	> 100 µM (inactive)	67 µM (inactive)	> 100 µM (inactive)			
CSc1ccc2c(cc1=O)[C@@H](NC(=O)c1ccc(F)cc1)CCc1cc(O)c(O)c(O)c1-2	> 100 µM (inactive)	> 100 µM (inactive)	> 100 µM (inactive)	> 100 µM (inactive)	> 100 µM (inactive)	84.9 µM (inactive)	> 100 µM (inactive)	> 100 µM (inactive)	> 100 µM (inactive)	> 100 µM (inactive)	> 100 µM (inactive)	> 100 µM (inactive)	> 100 µM (inactive)	> 100 µM (inactive)	> 100 µM (inactive)	> 100 µM (inactive)			
O=c1[nH]c(=O)n(Cc2ccccc2CO)cc1Sc1ccccc1	21 µM (inactive)	24.7 µM (inactive)	30 µM (inactive)	50 µM (inactive)		36.2 µM (inactive)	19.3 µM (inactive)	36.9 µM (inactive)	42.4 µM (inactive)	17.4 µM (inactive)	30.7 µM (inactive)	25.3 µM (inactive)	74.8 µM (inactive)	47.2 µM (inactive)	13.5 µM (inactive)	37.2 µM (inactive)	11.8 µM (inactive)	22.3 µM (inactive)	
O=C1/C(=C/c2ccccc2)CN(C(=O)Oc2ccc([N+](=O)[O-])cc2)C/C1=C\c1ccccc1	> 10 µM (inactive)	6.84 µM (inactive)	1.33 µM (inactive)	2.56 µM (inactive)	0.0551 µM (active)	> 10 µM (inactive)	14.2 µM (inactive)	0.59 µM (active)	> 10 µM (inactive)	7.76 µM (inactive)	> 10 µM (inactive)	0.506 µM (active)	1.04 µM (active)	4.49 µM (inactive)	> 10 µM (inactive)	7.83 µM (inactive)			
O=c1[nH]c2cc([N+](=O)[O-])ccc2nc1/C(=N/Nc1ccccc1)C(O)c1ccccc1Cl (configuration not stated)	67.3 µM (inactive)	> 100 µM (inactive)	43.3 µM (inactive)	79.8 µM (inactive)	52.4 µM (inactive)	> 100 µM (inactive)	> 100 µM (inactive)	41.9 µM (inactive)	> 100 µM (inactive)	90.8 µM (inactive)	> 100 µM (inactive)	> 100 µM (inactive)	> 100 µM (inactive)	> 100 µM (inactive)		39.7 µM (inactive)			
CCC(C)C(Nc1c2ccccc2nc2c(C(=O)NCCN(C)C)cccc12)C(=O)O (configuration not stated)	16.2 µM (inactive)		12.3 µM (inactive)	5.83 µM (inactive)	28.8 µM (inactive)	11.8 µM (inactive)	19.4 µM (inactive)	9.16 µM (inactive)	22 µM (inactive)	20.2 µM (inactive)	38.5 µM (inactive)	4.28 µM (inactive)		9.89 µM (inactive)		6.15 µM (inactive)	17.6 µM (inactive)	5.86 µM (inactive)	17.2 µM (inactive)
O=C(/C=C/c1cccc(Br)c1)c1cccs1	18.5 µM (inactive)		16.6 µM (inactive)	16.5 µM (inactive)	2.09 µM (inactive)		17.7 µM (inactive)	9.35 µM (inactive)	23.8 µM (inactive)	19.5 µM (inactive)	16.4 µM (inactive)	5.47 µM (inactive)	3.83 µM (inactive)	15.8 µM (inactive)	16.1 µM (inactive)	21 µM (inactive)	16.7 µM (inactive)	3.44 µM (inactive)	10.3 µM (inactive)
